Assays:
[1] = PPI/NSAID drug substance compatibility: storage of lansoprazole/NSAID mixtures with and without buffer; format: physicochemical
Protocol: Various NSAIDs were combined with lansoprazole with and without a buffer to determine the compatibility of the components. The various mixtures were placed at room temperature and 40° C. with 75% relative humidity. The samples were tested initially and after two weeks at the storage conditions above. The results are reported in Table 1 below as a percent of the theoretical amount of a given component.

[2] = Potency by HPLC and compatibility on storage of granulations and drug substances; format: physicochemical; conditions: for Potency 2 Weeks Extreme Conditions, NSAID: 2 weeks at 40° C. with 75% to 85% relative humidity; for Potency 4 Weeks Extreme Conditions, NSAID: 4 weeks at 40° C. with 75% to 85% relative humidity; for Potency 19 Days RT, NSAID: 19 days at room temperature; for Potency 33 Days RT, NSAID: 33 days at room temperature
Protocol: In this example, granulations of a PPI and various NSAIDs were prepared to determine the compatibility of these substances with each other in a granulated form.
The potency (mg/g) of each drug substance in each granulation was determined by HPLC.
Granulations A, C, and D, as well as naproxen and piroxicam drag substances were weighed and separately placed in scintillation vials and stored at room temperature (RT) and at 40° C. with 75% to 85% relative humidity (“Extreme Conditions”). Granulations A, C, and D, as well as the naproxen and piroxicam, were tested for potency of the lansoprazole and NSAID after 19 and 33 days at the room temperature conditions and after two and four weeks under the Extreme Conditions.

Row | % of Theory, 40° C. 75% humidity, lanso ([1]; lansoprazole recovered after two weeks at 40° C. with 75% relative humidity) | % of Theory, Room Temp., lanso ([1]; lansoprazole recovered after two weeks at room temperature) | % of Theory, Initial, lanso ([1]; lansoprazole recovered, initial) | Potency 2 Weeks Extreme Conditions, NSAID [2] | Potency 4 Weeks Extreme Conditions, NSAID [2] | Potency 19 Days RT, NSAID [2] | Potency 33 Days RT, NSAID [2] | Structure (SMILES)
1 | 99.1/NA % | 99.1/NA % | 100.8/NA % |  |  |  |  | Cc1c(OCC(F)(F)F)ccnc1C[S+]([O-])c1nc2ccccc2[nH]1 (centres unmarked) [Lansoprazole, lansoprazole]
2 |  |  |  | NA/996.7 mg/g | NA/1000.9 mg/g | NA/997.2 mg/g | NA/998.2 mg/g | COc1ccc2cc([C@H](C)C(=O)O)ccc2c1 [Naproxen, naproxen]
3 |  |  |  | NA/942.2 mg/g | NA/1005.5 mg/g | NA/1027.1 mg/g | NA/998.5 mg/g | CN1C(C(=O)Nc2ccccn2)=C(O)c2ccccc2S1(=O)=O [Piroxicam, piroxicam]

— US20090075950A1, “Dosage Forms Containing A PPI, NSAID And A Buffer” (Takeda Pharmaceuticals North America, Inc., priority 2002, published 2009)
